Molecules are shown by their SMILES.

In this experiment the target is VEGFR2, unphosphorylated (Homo sapiens (Human), UniProt P35968). Nature of the experiment: VEGFR ADP GLO Assay. It counts as biochemical.
VEGFR2, unphosphorylated, sequence (P35968 20-1356): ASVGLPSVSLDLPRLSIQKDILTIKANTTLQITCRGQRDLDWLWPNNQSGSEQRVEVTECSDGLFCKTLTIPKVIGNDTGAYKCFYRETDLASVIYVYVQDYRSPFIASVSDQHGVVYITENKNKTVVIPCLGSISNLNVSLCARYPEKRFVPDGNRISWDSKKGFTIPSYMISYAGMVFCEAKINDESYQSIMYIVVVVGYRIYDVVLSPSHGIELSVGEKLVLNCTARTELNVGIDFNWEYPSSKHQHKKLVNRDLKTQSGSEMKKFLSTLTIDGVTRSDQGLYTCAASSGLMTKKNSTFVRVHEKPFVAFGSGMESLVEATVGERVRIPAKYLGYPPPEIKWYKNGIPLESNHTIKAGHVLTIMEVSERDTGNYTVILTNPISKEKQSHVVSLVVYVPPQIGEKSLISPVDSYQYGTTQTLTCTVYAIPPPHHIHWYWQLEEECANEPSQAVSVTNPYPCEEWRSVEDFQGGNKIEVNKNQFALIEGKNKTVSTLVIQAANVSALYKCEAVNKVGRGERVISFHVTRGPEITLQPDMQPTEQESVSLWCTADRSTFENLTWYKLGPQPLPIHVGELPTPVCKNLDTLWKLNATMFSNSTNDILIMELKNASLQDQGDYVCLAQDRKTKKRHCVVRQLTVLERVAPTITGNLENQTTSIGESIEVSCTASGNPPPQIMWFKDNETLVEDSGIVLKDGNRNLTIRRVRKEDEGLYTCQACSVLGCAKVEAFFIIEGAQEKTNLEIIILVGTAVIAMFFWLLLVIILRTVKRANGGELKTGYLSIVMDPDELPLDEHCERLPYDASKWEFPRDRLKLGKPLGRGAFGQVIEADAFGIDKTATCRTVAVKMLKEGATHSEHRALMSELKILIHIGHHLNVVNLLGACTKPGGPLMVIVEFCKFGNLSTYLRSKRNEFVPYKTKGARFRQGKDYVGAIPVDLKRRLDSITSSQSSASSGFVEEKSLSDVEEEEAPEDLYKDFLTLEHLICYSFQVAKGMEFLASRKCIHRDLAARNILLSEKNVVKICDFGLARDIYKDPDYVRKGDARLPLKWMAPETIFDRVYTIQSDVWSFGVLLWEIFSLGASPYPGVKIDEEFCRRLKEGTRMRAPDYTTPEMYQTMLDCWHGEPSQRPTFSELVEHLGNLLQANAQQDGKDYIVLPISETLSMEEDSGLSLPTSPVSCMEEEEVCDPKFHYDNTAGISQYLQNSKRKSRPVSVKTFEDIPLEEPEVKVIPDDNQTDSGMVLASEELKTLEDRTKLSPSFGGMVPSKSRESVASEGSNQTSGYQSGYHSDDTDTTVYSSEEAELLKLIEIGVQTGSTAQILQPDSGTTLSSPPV
Broadly, the IC50 is the concentration that inhibits the measured activity by half. In the case of `Cc1ncc(C(=O)NCCN2CCCC2(C)C)cc1NC(=O)c1cnn2cc(-c3cnn(C)c3C)sc12` [Example 173, 2-(1,5-dimethyl-1H-pyrazol-4-yl)-N-(5-((2-(2,2-dimethylpyrrolidin-1-yl)ethyl)carbamoyl)-2-methylpyridin-3-yl)pyrazolo[5,1-b]thiazole-7-carboxamide], the IC50 is > 7.5 µM.
`Cc1ncc(C(=O)NCCN2CC3CCC2CC3)cc1NC(=O)c1cnn2cc(-c3cn(C)nc3C)sc12` [Example 178, N-(5-((2-(2-azabicyclo[2.2.2]octan-2-yl)ethyl)carbamoyl)-2-methylpyridin-3-yl)-2-(1,3-dimethyl-1H-pyrazol-4-yl)pyrazolo[5,1-b]thiazole-7-carboxamide]: the IC50 was > 7.5 µM.
On to `COCCn1cc(-c2cn3ncc(C(=O)Nc4cc(C(=O)NCCN5CC6CCC5CC6)cnc4C)c3s2)cn1` [Example 142, N-(5-((2-(2-azabicyclo[2.2.2]octan-2-yl)ethyl)carbamoyl)-2-methylpyridin-3-yl)-2-(1-(2-methoxyethyl)-1H-pyrazol-4-yl)pyrazolo[5,1-b]thiazole-7-carboxamide], for which the IC50 is > 7.5 µM.
As for `CC(=O)N1CCN(CCNC(=O)c2cnc(C)c(NC(=O)c3cnn4cc(-c5cnn(C)c5)sc34)c2)CC1` [Example 129, N-(5-((2-(4-acetylpiperazin-1-yl)ethyl)carbamoyl)-2-methylpyridin-3-yl)-2-(1-methyl-1H-pyrazol-4-yl)pyrazolo[5,1-b]thiazole-7-carboxamide], the figure is > 7.5 µM; as for `Cc1ncc(C(=O)NCCN2CC(C)(C)C2)cc1NC(=O)c1cnn2cc(-c3ccncc3)sc12` [Example 155, N-(5-((2-(3,3-dimethylazetidin-1-yl)ethyl)carbamoyl)-2-methylpyridin-3-yl)-2-(pyridin-4-yl)pyrazolo[5,1-b]thiazole-7-carboxamide], > 7.5 µM; as for `Cc1ncc(C(=O)NCCN2CCCC(F)(F)C2)cc1NC(=O)c1cnn2cc(-c3cnn(C)c3)sc12` [Example 123, N-(5-((2-(3,3-difluoropiperidin-1-yl)ethyl)carbamoyl)-2-methylpyridin-3-yl)-2-(1-methyl-1H-pyrazol-4-yl)pyrazolo[5,1-b]thiazole-7-carboxamide], > 7.5 µM.
As for `Cc1ncc(C(=O)NCCN2CCCC2(C)C)cc1NC(=O)c1cnn2cc(-c3cnn(C)c3)sc12` [Example 8, N-(5-((2-(2,2-dimethylpyrrolidin-1-yl)ethyl)carbamoyl)-2-methylpyridin-3-yl)-2-(1-methyl-1H-pyrazol-4-yl)pyrazolo[5,1-b]thiazole-7-carboxamide], the figure is > 10 µM; as for `Cc1ncc(NC(=O)CCN2CCCC2(C)C)cc1NC(=O)c1cnn2cc(-c3cnn(C)c3)sc12` [Example 10, N-(5-(3-(2,2-dimethylpyrrolidin-1-yl)propanamido)-2-methyl-pyridin-3-yl)-2-(1-methyl-1H-pyrazol-4-yl)pyrazolo[5,1-b]thiazole-7-carboxamide], > 7.5 µM.
In the case of `Cc1ncc(NC(=O)NCCC2CCN(C)CC2)cc1NC(=O)c1cnn2cc(-c3cnn(C)c3)sc12` [Example 108, 2-(1-methyl-1H-pyrazol-4-yl)-N-(2-methyl-5-(3-(2-(1-methylpiperidin-4-yl)ethyl)ureido)pyridin-3-yl)pyrazolo[5,1-b]thiazole-7-carboxamide], the IC50 is > 2.5 µM.
Next, `COCCn1cc(-c2cn3ncc(C(=O)Nc4cc(C(=O)NCCN5CC(C)(C)C5)cnc4C)c3s2)cn1` [Example 166, N-(5-((2-(3,3-dimethylazetidin-1-yl)ethyl)carbamoyl)-2-methylpyridin-3-yl)-2-(1-(2-methoxyethyl)-1H-pyrazol-4-yl)pyrazolo[5,1-b]thiazole-7-carboxamide]: > 7.5 µM; `COCCN(CCNC(=O)c1cnc(C)c(NC(=O)c2cnn3cc(-c4cnn(C)c4)sc23)c1)CCOC` [Example 128, N-(5-((2-(bis(2-methoxyethyl)amino)ethyl)carbamoyl)-2-methylpyridin-3-yl)-2-(1-methyl-1H-pyrazol-4-yl)pyrazolo[5,1-b]thiazole-7-carboxamide]: > 7.5 µM.
On to `Cc1ncc(C(=O)NCCN2CCCC23COC3)cc1NC(=O)c1cnn2cc(-c3cnn(C)c3)sc12` [Example 114, N-(5-((2-(2-oxa-5-azaspiro[3.4]octan-5-yl)ethyl)carbamoyl)-2-methylpyridin-3-yl)-2-(1-methyl-1H-pyrazol-4-yl)pyrazolo[5,1-b]thiazole-7-carboxamide], for which the IC50 is > 7.5 µM.
For `Cc1ncc(C(=O)NCCN2CC3CCC2CC3)cc1NC(=O)c1cnn2cc(-c3cnn(C4COC4)c3)sc12` [Example 144, N-(5-((2-(2-azabicyclo[2.2.2]octan-2-yl)ethyl)carbamoyl)-2-methylpyridin-3-yl)-2-(1-(oxetan-3-yl)-1H-pyrazol-4-yl)pyrazolo[5,1-b]thiazole-7-carboxamide], the IC50 is > 7.5 µM.
`Cc1ncc(C(=O)NCCN2CCC23CCC3)cc1NC(=O)c1cnn2cc(-c3cn(C)nc3C)sc12` [Example 175, N-(5-((2-(1-azaspiro[3.3]heptan-1-yl)ethyl)carbamoyl)-2-methylpyridin-3-yl)-2-(1,3-dimethyl-1H-pyrazol-4-yl)pyrazolo[5,1-b]thiazole-7-carboxamide]: the IC50 was > 7.5 µM.
In the case of `Cc1ncc(C(=O)NCCN2Cc3ncsc3C2)cc1NC(=O)c1cnn2cc(-c3cnn(C)c3)sc12` [Example 111, N-(5-((2-(4H-pyrrolo[3,4-d]thiazol-5 (6H)-yl)ethyl)carbamoyl)-2-methylpyridin-3-yl)-2-(1-methyl-1H-pyrazol-4-yl)pyrazolo[5,1-b]thiazole-7-carboxamide], the IC50 is > 7.5 µM.

The values are drawn from patent publication US20240109917A1 (ACTELION PHARMACEUTICALS LTD, priority 2020, published 2024).
